Data: the NIST ThermoML archive (doi:10.1021/je500672d)
Numbers after ± are expanded uncertainties.

Conditions: 298.15 K; 101.33 kPa; Liquid; Vibrating tube method

Compared with `CO` [methanol], `COC(C)=O` [methyl ethanoate] is higher in mass density: 786.4 ± 0.4 kg/m3 for the first, 927.7 ± 0.5 kg/m3 for the second.

Compound `COP(=O)([O-])OC.Cn1cc[n+](C)c1` [1,3-dimethylimidazolium dimethylphosphate] has a mass density of 1257.8 ± 1.4 kg/m3.
